From publication PMC6988309, “Preclinical efficacy for a novel tyrosine kinase inhibitor, ArQule 531 against acute myeloid leukemia” (Journal of Hematology & Oncology, 2020)
Values joined by “and” are separate entries in the source; they are usually repeats but may differ in a detail not shown here. Equal entries are not always repeated. Where two headings read alike, the source gives them in different places.

What was measured:
Ba/F3 FLT3-D835H = test: MTT proliferation assay 72 h, Ba/F3 FLT3-D835H; type: cell-based, murine; details: Mus musculus, BaF3, read-out: Estimated absolute µM IC50 and 95% CI
Procedure: (§4) For the MOLM-13 resistant and the Ba/F3-FLT3-ITD/TKD cell lines, cells were treated for 72 h and cell viability was evaluated using MTT assay (Roche Diagnostics. Mannheim. Germany) according to the manufacturer’s instructions.

[1] = system: primary AML patient blasts; test: Colony-Forming Unit-Granulocyte and Macrophage (CFU-GM) assay; type: cell-based, human; details: 3 µM, colonies counted after 14 days
Procedure: Primary AML patient samples were treated and plated at 5000–10,000 cells in 1.1 ml methylcellulose supplemented with recombinant human stem cell factor, interleukin 3, granulocyte colony-stimulating factor, and granulocyte-macrophage colony-stimulating factor (MethoCult™, […] Technologies, Vancouver, Canada) per dish in duplicates. Colonies were counted after 14 days when using primary patient samples.
MTS proliferation assay using a human stroma co-culture assay. […] FLT3 wild-type (WT) samples (red) and FLT3-ITD (black). Colony-Forming Unit-Granulocyte and Macrophage (CFU-GM) assay. […] Number of colonies were counted after 14 days (c)

Ba/F3 FLT3-ITD/F691L = test: MTT proliferation assay 72 h, Ba/F3 FLT3-ITD/F691L; type: cell-based, murine; details: Mus musculus, BaF3, read-out: Estimated absolute µM IC50 and 95% CI
Procedure: as §4

[2] = system: MOLM-13 disseminated AML xenograft; test: MOLM-13 disseminated xenograft, single agent study (NSG mice); type: in vivo
Procedure: (§1) All experiments were conducted after approval of The Ohio State University Institutional Animal Care and Use Committee. Mice were randomized and enrolled for daily oral gavage (Q.D.P.O) treatment of vehicle or 50 mg/kg ARQ 531. Mice were treated until reaching early removal criteria (ERC) defined as 20% weight loss, lethargy, hind limb paralysis, moribund, anorexia, dehydration, hunched posture, severe diarrhea, breathing difficulties, or any abnormal neurological symptoms.
A total of 10,000 luciferase expressing MOLM-13 cells were engrafted via tail vein injection in NSG mice (The Jackson Laboratory, Bar Harbor, ME) for the single agent ARQ 531 study or NCG mice (Charles River Laboratories, Wilmington, MA) for the ARQ 531 + venetoclax (ARQ + Ven) combination study. For the first single agent ARQ 531 study, mice were treated 7 days post-engraftment. Due to the aggressiveness of the MOLM-13 model, mice were treated 4 days post-engraftment in the ARQ + Ven combination study. In both studies, mice were treated daily via oral gavage with vehicle (10% absolute alcohol, 10% Cremophor-EL, 80% saline) or 50 mg/kg ARQ 531, and 75 mg/kg venetoclax ± 50 mg/kg ARQ 531 for the combination study. Weekly in vivo imaging was performed using In Vivo Imaging System (IVIS) imager (PerkinElmer, Waltham, MA).
Kaplan–Meier survival curve in the MOLM-13 disseminated AML xenograft model. […]

[3] = design: method as in PMID 30093506; details: cynomolgus monkeys, cited from earlier work
MOLM13 = test: MTT proliferation assay 72 h, parental MOLM13; type: cell-based, human
Procedure: A total of 5000–30,000 cells from the lines above were treated in a 96-well plate for 72 h. CellTiter 96 Aqueous MTS reagent (Promega, Madison, WI) was added to cells followed by a 3-h incubation at 37 °C, 5% CO2. The absorbance was measured at 490 nm using DTX 880 plate reader and the half maximal inhibitory concentration (IC50) was calculated using GraphPad Prism 7 (GraphPad Software, La Jolla, CA) and SAS/STAT software (SAS v9.4 for Windows, SAS Institute, Inc., Cary, NC). For the MOLM-13 resistant and the Ba/F3-FLT3-ITD/TKD cell lines, cells were treated for 72 h and cell viability was evaluated using MTT assay (Roche Diagnostics. Mannheim. Germany) according to the manufacturer’s instructions.

Ba/F3 FLT3-ITD/D835H = test: MTT proliferation assay 72 h, Ba/F3 FLT3-ITD/D835H; type: cell-based, murine; details: Mus musculus, BaF3, read-out: Estimated absolute µM IC50 and 95% CI
Procedure: as §4

[4] = system: phosphorylated SFK, FLT3, STAT5, and ERK; test: Immunoblot of phosphorylated SFK, FLT3, STAT5 and ERK in FLT3-ITD cell lines; type: cell-based, human; details: MOLM-13 and MV4-11, serum starved, 10-min treatment
Procedure: (§2) Cell lines were serum starved overnight followed by a 10-min treatment. Cells were washed in ice-cold PBS then lysed in 1X Cell Lysis Buffer (CST) supplemented with proteinase and phosphatase inhibitors cocktail (Roche). Pierce BCA Protein Assay was used to quantify the protein lysates (Thermo Fisher Scientific, Waltham, MA). For Immunoblotting, 15–25 μg of protein lysate was prepared in 2X or 4X Laemmeli’s sample buffer (Bio-Rad Laboratories, Hercules, CA) and heated for 5 min at 100 °C. Samples were separated on 8% sodium dodecyl sulfate polyacrylamide gel and transferred onto nitrocellulose membrane (Bio-Rad Laboratories, Hercules, CA). The membranes were blocked for 1 h in Blocker BLOTTO Blocking Buffer (Thermo Fisher Scientific, Waltham, MA) or 5% non-fat milk followed by overnight incubation at 4 °C with primary antibody followed by HRP-conjugated secondary antibodies and visualized with chemiluminescent Pierce ECL Substrate (Thermo Fisher Scientific, Waltham, MA) on X-ray films.
(§3) Immunoblot analysis for MOLM-13, MV4-11, and OCI-AML3 AML cell lines (representative of 2-3 independent blots). […] Twenty to 25 μg of total protein lysate was loaded per lane.

[5] = system: phosphorylation of Tyrosine 416 of the SFK; test: Immunoblot of phospho-SFK Tyr416; type: cell-based, human; details: MOLM-13, MV4-11, and OCI-AML3, 10-min treatment
Procedure: as §2, §3

FLT3-ITD = FLT3-ITD (Homo sapiens, UniProt P36888, ITD); test: Biochemical assay of recombinant kinases, FLT3-ITD; details: recombinant kinase domain, 10 μmol/L ATP
Procedure: Biochemical inhibition of FLT3-WT and FLT3-ITD fusion was measured using recombinant protein constructs of kinase domains (Reaction Biology).

[6] = Toxicity in xenograft mouse studies; type: in vivo; details: xenograft mice, 50 mg/kg daily oral
Procedure: as §1

[7] = MTT proliferation assay 72 h, Ba/F3 lines with FLT3-ITD, TKD or both (all lines together); type: cell-based, murine; details: Mus musculus, BaF3, range across cell lines, read-out: IC50 range over the Ba/F3 FLT3 mutant cell lines

Chain of FLT3-ITD (P36888 564-993, stated change not applied): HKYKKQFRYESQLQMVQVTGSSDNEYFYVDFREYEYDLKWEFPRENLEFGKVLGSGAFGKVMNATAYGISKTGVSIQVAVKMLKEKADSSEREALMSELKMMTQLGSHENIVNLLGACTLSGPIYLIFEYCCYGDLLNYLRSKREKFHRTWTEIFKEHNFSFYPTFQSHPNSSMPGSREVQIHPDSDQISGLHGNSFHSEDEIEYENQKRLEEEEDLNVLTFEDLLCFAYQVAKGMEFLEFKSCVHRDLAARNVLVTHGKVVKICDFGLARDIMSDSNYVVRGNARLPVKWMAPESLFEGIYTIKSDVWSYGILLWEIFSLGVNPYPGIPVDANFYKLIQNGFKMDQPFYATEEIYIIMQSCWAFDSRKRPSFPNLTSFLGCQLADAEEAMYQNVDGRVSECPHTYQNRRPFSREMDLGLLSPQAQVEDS
Procedure for Ba/F3 FLT3-ITD Parental: CellTiter 96 Aqueous MTS reagent (Promega, Madison, WI) was added to cells followed by a 3-h incubation at 37 °C, 5% CO2. The absorbance was measured at 490 nm using DTX 880 plate reader and the half maximal inhibitory concentration (IC50) was calculated using GraphPad Prism 7 (GraphPad Software, La Jolla, CA) and SAS/STAT software (SAS v9.4 for Windows, SAS Institute, Inc., Cary, NC).

O=C(c1ccc(Oc2ccccc2)cc1Cl)c1c[nH]c2ncnc(N[C@@H]3CC[C@@H](CO)OC3)c12 [ARQ 531]
IC50 (Ba/F3 FLT3-D835H): 1.74 µM | Estimated ratio of colony formation vs. DMSO [1]: 0.45 | IC50 (Ba/F3 FLT3-ITD/F691L): 7.12 µM | median survival ([2]; 50 mg/kg Q.D.P.O from 7 days post-engraftment until ERC, vehicle 21 days): 23 days | median survival advantage vs vehicle ([2]; 50 mg/kg Q.D.P.O, log-rank p value = 0.002): 2 days | plasma half-life (t1/2) ([3]; not calculated due to absence of elimination phase): long plasma half-life | Tmax ([3]; single 10 mg/kg oral dose): ≤ 6 h | oral bioavailability ([3]; single 10 mg/kg oral dose): 72% | share of peak concentration present at 24 h ([3]; single 10 mg/kg oral dose): 75% | Cmax ([3]; single 10 mg/kg oral dose, read-out: maximum concentration (Cmax)): 9 µM | IC50 (MOLM13; Homo sapiens, MOLM-13, 72 h, read-out: Estimated absolute µM IC50 and 95% CI, MTT, 72 h): 1.33 µM | IC50 (MOLM13; read-out: Estimated absolute µM IC50 and 95% CI, MTT, 72 h): 1.3 µM | IC50 (Ba/F3 FLT3-ITD Parental): 2710 nM and 2530 nM | IC50 (Ba/F3 FLT3-ITD/D835H): 3.76 µM | concentration inhibiting phosphorylated levels of SFK, FLT3, STAT5, and ERK [4]: ≤ 500 nM | inhibition of phosphorylation of Tyrosine 416 of the SFK [5]: potently inhibited | IC50 (FLT3-ITD): 330 nM | toxicity [6]: lack of toxicity | IC50 [7]: 1.2 to 7.6 µM
